Test results from PubChem BioAssay AID180 (DTP/NCI, 2004).
Where “and” joins values, the source holds several entries; their conditions need not be identical. Equal entries are not always repeated.

Test system: BDF1 mice, Adenocarcinoma 755 s.c., tumor weight T/C
Assay: NCI In Vivo Anticancer Drug Screen. Data for tumor model Adenocarcinoma 755 (subcutaneous) in B6D2F1 (BDF1) mice
Settings: endpoint: mean tumor weight, higher = larger tumour
In short: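 Transplantable tumor implanted; mice dosed with compound or vehicle; survival or tumor size recorded; ratio of treated to vehicle control reported.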

[1] = dose: 25.0 mg/kg/injection, schedule: Q01DX011 (ip), vehicle: methylcellulose (MC)
[2] = dose: 75.0 mg/kg/injection, schedule: Q01DX011 (ip), vehicle: methylcellulose (MC)
[3] = dose: 225.0 mg/kg/injection, schedule: Q01DX011 (ip), vehicle: methylcellulose (MC)
[4] = dose: 30.0 mg/kg/injection, schedule: Q01DX011 (ip), vehicle: carboxymethylcellulose (CMC)
[5] = dose: 60.0 mg/kg/injection, schedule: Q01DX011 (ip), vehicle: carboxymethylcellulose (CMC)
[6] = dose: 3.7 mg/kg/injection, schedule: Q01DX011 (ip), vehicle: carboxymethylcellulose (CMC)
[7] = dose: 7.5 mg/kg/injection, schedule: Q01DX011 (ip), vehicle: carboxymethylcellulose (CMC)
[8] = dose: 15.0 mg/kg/injection, schedule: Q01DX011 (ip), vehicle: carboxymethylcellulose (CMC)
[9] = dose: 15.0 mg/kg/injection, schedule: Q01DX011 (ip), vehicle: methylcellulose (MC)
[10] = dose: 62.0 mg/kg/injection, schedule: Q01DX011 (ip), vehicle: methylcellulose (MC)
[11] = dose: 125.0 mg/kg/injection, schedule: Q01DX011 (ip), vehicle: methylcellulose (MC)
[12] = dose: 100.0 mg/kg/injection, schedule: Q01DX011 (ip), vehicle: methylcellulose (MC)

Nc1nc(SCc2ccccc2)c2ncn(C3CCCCC3)c2n1
T/C [1]: 113 % of control | T/C [2]: 121 % of control | T/C [3]: 210 % of control

CSc1nc2c(=O)[nH]c(N)nc2n1C1OC(CO)C(O)C1O (centres undefined)
T/C [4]: 88 % of control | T/C [5]: 98 % of control | T/C (dose: 120.0 mg/kg/injection, schedule: Q01DX011 (ip), vehicle: carboxymethylcellulose (CMC)): 91 % of control | T/C (dose: 240.0 mg/kg/injection, schedule: Q01DX011 (ip), vehicle: carboxymethylcellulose (CMC)): 47 % of control

Clc1ncnc2c1ncn2C1CCCS1 (centres undefined)
T/C [1]: 107 % of control

Nc1nc(SCc2ccccc2[N+](=O)[O-])c2[nH]cnc2n1
T/C [6]: 95 % of control | T/C [7]: 90 % of control | T/C [8]: 68 % of control | T/C [4]: 67 % of control | T/C (dose: 37.5 mg/kg/injection, schedule: Q01DX011 (ip), vehicle: carboxymethylcellulose (CMC)): 2 % of control | T/C (dose: 75.0 mg/kg/injection, schedule: Q01DX011 (ip), vehicle: carboxymethylcellulose (CMC)): 1 % of control | T/C (dose: 300.0 mg/kg/injection, schedule: Q01DX011 (ip), vehicle: carboxymethylcellulose (CMC)): 4 % of control

C[C@]12CCC(=O)C=C1CC[C@@H]1[C@@H]2[C@@H](O)C[C@@]2(C)[C@H]1CC[C@]2(O)C(=O)CF
T/C (dose: 50.0 mg/kg/injection, schedule: Q01DX011 (sc), vehicle: steriod suspending solution): 21 % of control | T/C (dose: 100.0 mg/kg/injection, schedule: Q01DX011 (sc), vehicle: steriod suspending solution): 16 % of control | T/C (dose: 200.0 mg/kg/injection, schedule: Q01DX011 (sc), vehicle: steriod suspending solution): 6 % of control and 10 % of control | T/C (dose: 400.0 mg/kg/injection, schedule: Q01DX011 (sc), vehicle: steriod suspending solution): 7 % of control and 9 % of control | T/C (dose: 600.0 mg/kg/injection, schedule: Q01DX011 (sc), vehicle: steriod suspending solution): 9 % of control

Clc1ncc2[nH]c(Cl)nc2n1
T/C [4]: 96 % of control | T/C [5]: 112 % of control

NC(=O)c1cc(N)nc(N)n1
T/C [9]: 97 % of control | T/C (dose: 31.0 mg/kg/injection, schedule: Q01DX011 (ip), vehicle: methylcellulose (MC)): 106 % of control | T/C [10]: 114 % of control | T/C [11]: 45 % of control

S=c1nc[nH]c2c1ncn2C1CCCS1 (centres undefined)
T/C [2]: 114 % of control | T/C [3]: 43 % of control

CC(=O)OCC1OC(n2cnc3c(=S)nc[nH]c32)C(OC(C)=O)C1OC(C)=O (centres undefined)
T/C (dose: 0.2 mg/kg/injection, schedule: Q01DX011 (ip), vehicle: carboxymethylcellulose (CMC)): 84 % of control | T/C (dose: 0.4 mg/kg/injection, schedule: Q01DX011 (ip), vehicle: carboxymethylcellulose (CMC)): 93 % of control | T/C (dose: 0.9 mg/kg/injection, schedule: Q01DX011 (ip), vehicle: carboxymethylcellulose (CMC)): 61 % of control | T/C (dose: 1.8 mg/kg/injection, schedule: Q01DX011 (ip), vehicle: carboxymethylcellulose (CMC)): 14 % of control and 31 % of control | T/C [6]: 6 % of control | T/C [7]: 3 % of control | T/C [8]: 2 % of control

OCC1OC(n2cnc3c(Cl)ncnc32)C(O)C1O (centres undefined)
T/C (dose: 62.5 mg/kg/injection, schedule: Q01DX011 (ip), vehicle: carboxymethylcellulose (CMC)): 153 % of control | T/C [12]: 72 % of control | T/C (dose: 125.0 mg/kg/injection, schedule: Q01DX011 (ip), vehicle: carboxymethylcellulose (CMC)): 63 % of control | T/C (dose: 200.0 mg/kg/injection, schedule: Q01DX011 (ip), vehicle: methylcellulose (MC)): 78 % of control | T/C (dose: 250.0 mg/kg/injection, schedule: Q01DX011 (ip), vehicle: carboxymethylcellulose (CMC)): 55 % of control | T/C (dose: 300.0 mg/kg/injection, schedule: Q01DX011 (ip), vehicle: methylcellulose (MC)): 90 % of control | T/C (dose: 400.0 mg/kg/injection, schedule: Q01DX011 (ip), vehicle: methylcellulose (MC)): 63 % of control | T/C (dose: 500.0 mg/kg/injection, schedule: Q01DX011 (ip), vehicle: methylcellulose (MC)): 11 % of control | T/C (dose: 750.0 mg/kg/injection, schedule: Q01DX011 (ip), vehicle: methylcellulose (MC)): 4 % of control | T/C (dose: 1000.0 mg/kg/injection, schedule: Q01DX011 (ip), vehicle: methylcellulose (MC)): 15 % of control

CCc1c(Cl)nc(N)nc1Nc1ccccc1C
T/C [9]: 115 % of control | T/C [10]: 88 % of control | T/C [11]: 114 % of control | T/C (dose: 250.0 mg/kg/injection, schedule: Q01DX011 (ip), vehicle: methylcellulose (MC)): 94 % of control

Cn1ncc2c(NCc3ccccc3)ncnc21
T/C (dose: 5.0 mg/kg/injection, schedule: Q01DX011 (ip), vehicle: carboxymethylcellulose (CMC)): 62 % of control and 66 % of control and 71 % of control | T/C (dose: 10.0 mg/kg/injection, schedule: Q01DX011 (ip), vehicle: carboxymethylcellulose (CMC)): 43 % of control and 58 % of control and 60 % of control | T/C (dose: 20.0 mg/kg/injection, schedule: Q01DX011 (ip), vehicle: carboxymethylcellulose (CMC)): 5 % of control and 24 % of control and 29 % of control

CC(C)CC(Nc1ncnc2nc[nH]c12)C(=O)O (centres undefined)
T/C (dose: 12.0 mg/kg/injection, schedule: Q01DX011 (ip), vehicle: methylcellulose (MC)): 110 % of control | T/C [1]: 96 % of control | T/C (dose: 50.0 mg/kg/injection, schedule: Q01DX011 (ip), vehicle: methylcellulose (MC)): 101 % of control | T/C [12]: 60 % of control

COC(C(=O)C(O)C(C)O)C1Cc2cc3cc(OC4CC(OC(C)=O)C(OC5CC(O)C(OC)C(C)O5)C(C)O4)cc(O)c3c(O)c2C(=O)C1OC1CC(OC2CC(OC3CC(C)(O)C(OC(=O)C(C)C)C(C)O3)C(O)C(C)O2)C(O)C(C)O1 (centres undefined)
T/C (dose: 0.02 mg/kg/injection, schedule: Q01DX011 (ip), vehicle: carboxymethylcellulose (CMC)): 93 % of control | T/C (dose: 0.04 mg/kg/injection, schedule: Q01DX011 (ip), vehicle: carboxymethylcellulose (CMC)): 93 % of control | T/C (dose: 0.08 mg/kg/injection, schedule: Q01DX011 (ip), vehicle: carboxymethylcellulose (CMC)): 52 % of control | T/C (dose: 0.15 mg/kg/injection, schedule: Q01DX011 (ip), vehicle: saline): 114 % of control | T/C (dose: 0.16 mg/kg/injection, schedule: Q01DX011 (ip), vehicle: carboxymethylcellulose (CMC)): 14 % of control and 39 % of control | T/C (dose: 0.33 mg/kg/injection, schedule: Q01DX011 (ip), vehicle: saline): 66 % of control | T/C (dose: 0.66 mg/kg/injection, schedule: Q01DX011 (ip), vehicle: saline): 54 % of control | T/C (dose: 1.25 mg/kg/injection, schedule: Q01DX011 (ip), vehicle: saline): 8 % of control and 11 % of control | T/C (dose: 2.5 mg/kg/injection, schedule: Q01DX011 (ip), vehicle: saline): 2 % of control and 3 % of control

O=[N+]([O-])O.[Ga]
T/C (dose: 12.5 mg/kg/injection, schedule: Q01DX011 (ip), vehicle: saline): 20 % of control | T/C (dose: 25.0 mg/kg/injection, schedule: Q01DX011 (ip), vehicle: saline): 24 % of control | T/C (dose: 50.0 mg/kg/injection, schedule: Q01DX011 (ip), vehicle: saline): 7 % of control

CCSc1ncc(Br)c(Sc2nc(N)nc3nc[nH]c23)n1
T/C (dose: 0.5 mg/kg/injection, schedule: Q01DX011 (ip), vehicle: carboxymethylcellulose (CMC)): 69 % of control | T/C (dose: 0.5 mg/kg/injection, schedule: Q01DX011 (ip), vehicle: methylcellulose (MC)): 68 % of control | T/C (dose: 1.0 mg/kg/injection, schedule: Q01DX011 (ip), vehicle: carboxymethylcellulose (CMC)): 17 % of control and 30 % of control | T/C (dose: 1.0 mg/kg/injection, schedule: Q01DX011 (ip), vehicle: methylcellulose (MC)): 37 % of control | T/C (dose: 1.5 mg/kg/injection, schedule: Q01DX011 (ip), vehicle: carboxymethylcellulose (CMC)): 18 % of control | T/C (dose: 2.0 mg/kg/injection, schedule: Q01DX011 (ip), vehicle: carboxymethylcellulose (CMC)): 57 % of control | T/C (dose: 3.0 mg/kg/injection, schedule: Q01DX011 (ip), vehicle: carboxymethylcellulose (CMC)): 3 % of control and 5 % of control and 23 % of control | T/C (dose: 4.0 mg/kg/injection, schedule: Q01DX011 (ip), vehicle: carboxymethylcellulose (CMC)): 2 % of control | T/C (dose: 6.0 mg/kg/injection, schedule: Q01DX011 (ip), vehicle: carboxymethylcellulose (CMC)): 2 % of control | T/C (dose: 8.0 mg/kg/injection, schedule: Q01DX011 (ip), vehicle: carboxymethylcellulose (CMC)): 15 % of control | T/C (dose: 12.0 mg/kg/injection, schedule: Q01DX011 (ip), vehicle: carboxymethylcellulose (CMC)): 3 % of control

CS(=O)(=O)OCCCCCOS(C)(=O)=O
T/C (dose: 4.5 mg/kg/injection, schedule: Q01DX011 (ip), vehicle: carboxymethylcellulose (CMC)): 110 % of control | T/C (dose: 9.0 mg/kg/injection, schedule: Q01DX011 (ip), vehicle: carboxymethylcellulose (CMC)): 86 % of control | T/C (dose: 18.0 mg/kg/injection, schedule: Q01DX011 (ip), vehicle: carboxymethylcellulose (CMC)): 67 % of control | T/C [1]: 11 % of control | T/C (dose: 37.0 mg/kg/injection, schedule: Q01DX011 (ip), vehicle: carboxymethylcellulose (CMC)): 3 % of control
